The values that follow come from article PMC4102551, “Screening and Characterisation of Antimicrobial Properties of Semisynthetic Betulin Derivatives” (PLoS ONE, 2014).

The test system of series [1] is E. coli ATCC 25922. Put plainly: Broth microdilution assay, E. coli. The series is classed as cell-based, Escherichia coli. An outline of the steps: (§1)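 Broth microdilution per CLSI/EUCAST in Mueller Hinton II broth, 5×10^5 cfu/mL, 24 h at 37°C with agitation; growth by absorbance at 620 nm versus controls. Compounds first screened at 50 µM.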
(In broth dilution the organism is exposed to a series of concentrations in liquid medium.)

Series [2] deals with Huh-7 cells. The series can be described thus: in vitro. The following applies: for Cytotoxicity (%) Huh-7 cells: 50 µM. The series is classed as cell-based, human. In a few lines:
(§2)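 Cytotoxicity read-out: intracellular ATP (CellTiter-Glo luminescence) in Huh-7 hepatoma cells seeded at 20000 cells/well, cultured overnight, then exposed to compounds for 24 h at 37°C in 5% FBS medium. Polymyxin B sulphate (15000 IU/mL) served as positive control.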

For series [3], the system named is E. aerogenes ATCC 13048. Put plainly: Broth microdilution assay, E. aerogenes. The following applies: for inhibition at 50 µM: Klebsiella aerogenes, ATCC13048, 24 h, read-out: Inhibitory effect (%) E. aerogenes ATCC 13048. The series is classed as cell-based, Enterobacter aerogenes. In a few lines: as §1
Series [4] has as its system P. aeruginosa ATCC 27853. Put plainly: Broth microdilution assay, P. aeruginosa. Type of series: cell-based, Pseudomonas aeruginosa. In a few lines:
as §1

The subject of series [5] is S. aureus ATCC 25923. The series can be described thus: Broth microdilution assay, S. aureus. Type of series: cell-based, Staphylococcus aureus. The following applies: for inhibition at 50 µM: Staphylococcus aureus, ATCC25923, 24 h. An outline of the steps: as §1
Series [6] deals with all microbial strains tested. Put plainly: Primary antimicrobial screening, all strains. Type of series: cell-based. To be noted: 50 µM. The source says: Gram-negative strains Escherichia coli (ATCC 25922), Enterobacter aerogenes (ATCC 13048) and Pseudomonas aeruginosa (ATCC 27853), Gram-positive strains Staphylococcus aureus (ATCC 25923) and Enterococcus faecalis (ATCC 29212), and fungal strain Candida albicans (ATCC 90028) were obtained from Microbiologics Inc., and used for the antimicrobial screening. Strains were selected according to the guidelines set for clinical laboratories by Clinical and Laboratory Standards Institute [CLSI, formerly National Committee on Clinical Laboratory Standards [22]] and the European Committee on Antimicrobial Susceptibility Testing (EUCAST). Bacterial strains were grown on Mueller Hinton II Agar (MHA) (BBL, BD) and Mueller Hinton II broth (MHB) (BBL, BD), whereas Candida was initiated on Sabouraud Dextrose Agar (SDA) (Difco, BD) plates. Media were prepared into MilliQ water according to manufacturer’s instruction and autoclaved at 121°C for 15 min. Bacteria were plated on MHA plates and incubated at 37°C for 16–18 h. […] Absorbance was measured at 620 nm with Victor plate reader (Wallac 1420, Perkin Elmer) at 0, 4 and 24 h with the bacteria, and at 0, 24 and 48 h with Candida. The antimicrobial activity of the samples was calculated from the absorbance values by comparing to the controls, and expressed as a percentage inhibition of growth. […]

Series [7] deals with C. albicans ATCC 90028. The series can be described thus: Broth microdilution assay, C. albicans. Type of series: cell-based, Candida albicans. An outline of the steps:
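Candida albicans ATCC 90028 was grown on Sabouraud Dextrose Agar at 27°C for 16–18 h, then suspended in sterile 0.9% saline. Broth microdilution in clear 96-well plates mixed equal volumes of yeast suspension and diluted sample. Plates were incubated with agitation at 35°C for 48 h. Absorbance at 620 nm was read at 0, 24 and 48 h, and growth inhibition was expressed as a percentage relative to controls.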

Series [8] relates to E. faecalis ATCC 29212. The series can be described thus: Broth microdilution assay, E. faecalis. Type of series: cell-based, Enterococcus faecalis. The following applies: for inhibition at 50 µM: Enterococcus faecalis, ATCC29212, 24 h. An outline of the steps:
as §1

A short description of series [9]: in vitro. The series is classed as cell-based, human. To be noted: human. In a few lines:
as §2

The test system of series [10] is S. aureus and E. faecalis. Also noted: method as in PMID 18835348. To be noted: ref 36; cited from earlier work.
The mark [11] stands for this setting: 50 µM, 24 h, inhibition of growth, mean ± SD.
[12] abbreviates: 24 h exposure, ATP content, 5% FBS.
Where [13] appears, read: 50 µM, 48 h at 35°C, inhibition of growth, mean ± SD.
The mark [14] stands for this setting: Escherichia coli, ATCC25922, 24 h; read-out: Inhibitory effect (%) E. coli ATCC 25922.
Setting [15] is: Pseudomonas aeruginosa, ATCC27853, 24 h; read-out: Inhibitory effect (%) P. aeruginosa ATCC 27853.
The mark [16] stands for this setting: 50 µM, 24 h, inhibition of growth, mean ± SD, read-out: Inhibitory effect (%) S. aureus ATCC 25923.
Setting [17] is: Candida albicans, ATCC90028, 48 h; read-out: Inhibitory effect (%) C. albicans ATCC 90028.
Setting [18] is: 50 µM, 24 h, inhibition of growth, mean ± SD, read-out: Inhibitory effect (%) E. faecalis ATCC 29212.

Like-named read-outs stand apart in the source and are kept apart here.

For `C=C(C)C1CCC2(COC(C)=O)CCC3(C)C(CCC4C5(C)CCC(OC(C)=O)C(C)(C)C5CCC43C)C12` (stereo not shown) [Compound 14], the “Inhibitory effect (%) E. coli ATCC 25922” value in series [1] (setting [11]) was -1.8±2.1%. In addition, in [2] (setting [12]), the “Cytotoxicity (%) Huh-7 cells” value was -11.1±3.8%. The “Inhibitory effect (%) E. aerogenes ATCC 13048” value in series [3] (setting [11]) turned out to be 8.1±9.0%. For the same compound, the “Inhibitory effect (%) P. aeruginosa ATCC 27853” value in [4] (setting [11]) was 3.9±0.6%. The “Inhibitory effect (%) S. aureus ATCC 25923” value in [5] (setting [11]) is on record as 13.8±3.2%. For the same compound, in [6], the “Activity against all microbial strains tested” value is “inactive”. The “Inhibitory effect (%) C. albicans ATCC 90028” value in series [7] (setting [13]) is listed as -1.1±18.3%. Further, the “Inhibitory effect (%) E. faecalis ATCC 29212” value in series [8] (setting [11]) stood at 22.8±17.5%.
As for `CCn1c(=O)n2n(c1=O)C1(C(C)C)CCC3(COC(C)=O)CCC4(C)C(=C31)C2CC1C2(C)CCC(OC(C)=O)C(C)(C)C2CCC14C` (stereo not shown) [Compound 43], the inhibition at 50 µM in series [1] (setting [14]) is -3.7%; in series [3] (setting [11]), 18.5 ± 2.2%; in series [4] (setting [15]) it was 1.7 ± 1.7%; in [5] (setting [16]) it was 2.9 ± 0.7%; in [7] (setting [17]) it was -9.7%; in series [8] (setting [18]), 57.1 ± 4.4%. In addition, in [9] (50 µM, 24 h exposure, ATP content, 5% FBS, read-out: Cytotoxicity (%) Huh-7 cells), the cytotoxicity at 24 h, 50 µM is 85%. In addition, the IC50 at 24 h in [9] (24 h exposure, ATP assay, 5% FBS, read-out: IC50 cytotoxicity Huh-7 cells) was 16 µM. In series [2] (setting [12]), the “Cytotoxicity (%) Huh-7 cells” value stood at 86.0±2.0%. Besides, the “Effect on Huh-7 cell monolayer in ATP assay” value in [2] (100 µM, 24 h) is “completely destroyed the cell monolayer”.
On to `C=C(C)[C@@H]1CC[C@]2(C=O)CC[C@]3(C)C(CCC4[C@@]5(C)CC[C@H](O)C(C)(C)C5CC[C@]43C)C12` (stereo partly shown) [Compound 18, betulinic aldehyde], for which the inhibition at 50 µM in [1] (setting [14]) was 2.7 ± 2.4%; in series [3] (setting [11]) it was 13.5 ± 2.6%; in series [4] (setting [15]) it was 3.9 ± 0.6%; in [5] (setting [16]), -35.5%; in series [7] (setting [17]), 6.9 ± 8.1%; in series [8] (setting [18]) it was 39.6 ± 8%. Also, in series [9], the midpoint of inhibition, the IC50 at 24 h, lay at 47 µM. In addition, in series [9] (Cytotoxicity (%) Huh-7 cells), the cytotoxicity at 24 h, 50 µM was determined as 61%. For the same compound, in series [2] (human, 24 h), the “Cytotoxicity (%) Huh-7 cells” value was determined as 61.3±9.5%.
As to `C=C(C)C1CCC2(C=NO)CCC3(C)C(CCC4C5(C)CCC(O)C(C)(C)C5CCC43C)C12` (stereo not shown) [Compound 31, betulin-28-oxime], the inhibition at 50 µM in series [1] (setting [14]) was 1.9 ± 4%; in [3] (setting [11]) it was 14.6 ± 0.9%; in series [4] (setting [15]), 5.4 ± 2.2%; in series [5] (setting [16]), 6.4 ± 3.4%; in series [7] (setting [17]), -73.5%; in series [8] (setting [18]), 41 ± 3.4%. This compound registered a concentration for half-maximal inhibition (IC50) at 24 h in series [9] of 25 µM. The cytotoxicity at 24 h, 50 µM in series [9] (Cytotoxicity (%) Huh-7 cells) was 61%. The inhibition at 100 µM in [2] (Homo sapiens, Huh-7, 100 µM, 24 h, read-out: Inhibition in ATP assay, Huh-7 cells) is 60%. The “Cytotoxicity (%) Huh-7 cells” value in [2] (human, 24 h) was 61.5±2.0%.
Turning to `C[C@H]1[C@H](C)CC[C@]2(C(=O)O)CC[C@]3(C)C(=CC[C@@H]4[C@@]5(C)CC[C@H](O)C(C)(C)[C@@H]5CC[C@]43C)[C@H]12` [UA, ursolic acid], the “MIC against S. aureus and E. faecalis” value in [10] is 4 to 8 µg/mL.
For the compound `C=C(C)[C@@H]1CC[C@]2(C(=O)Oc3ccc(C=O)cc3OC)CC[C@]3(C)[C@H](CC[C@@H]4[C@@]5(C)CCC(=O)C(C)(C)C5CC[C@]43C)[C@@H]12` (stereo partly shown) [Compound 26, vanillinyl betulonate], the inhibition at 50 µM was 4.1 ± 0.4% in series [1] (Escherichia coli, ATCC25922, 24 h, read-out: Inhibitory effect (%) E. coli ATCC 25922); 7.5 ± 0.6% in [3]; 6.6 ± 1% in [4] (Pseudomonas aeruginosa, ATCC27853, 24 h, read-out: Inhibitory effect (%) P. aeruginosa ATCC 27853); 7.3 ± 5.8% in series [5] (read-out: Inhibitory effect (%) S. aureus ATCC 25923, 50 µM, 24 h, inhibition of growth, mean ± SD); -65.9 ± 15% in [7] (Candida albicans, ATCC90028, 48 h, read-out: Inhibitory effect (%) C. albicans ATCC 90028); 59% in series [8] (read-out: Inhibitory effect (%) E. faecalis ATCC 29212, 50 µM, 24 h, inhibition of growth, mean ± SD). Also, the cytotoxicity at 24 h, 50 µM in series [9] (Cytotoxicity (%) Huh-7 cells) was -10.1 ± 2.2%. Further, the “Inhibitory effect (%) E. faecalis ATCC 29212” value in series [8] (setting [11]) turned out to be 58.7±0.1%.
For the compound `C=C(C)C1CCC2(COC(C)=O)CCC3(C)C(CCC4C5(C)CCC(=O)C(C)(C)C5CCC43C)C12` (stereo not shown) [Compound 21], in series [1] (setting [11]), the “Inhibitory effect (%) E. coli ATCC 25922” value turned out to be 2.6±1.8%. Moreover, in series [2] (setting [12]), the “Cytotoxicity (%) Huh-7 cells” value is recorded as -3.9±1.1%. For the same compound, in series [3] (setting [11]), the “Inhibitory effect (%) E. aerogenes ATCC 13048” value worked out at 12.6±6.2%. Also, the “Inhibitory effect (%) P. aeruginosa ATCC 27853” value in series [4] (setting [11]) amounted to 4.7±2.0%. In addition, the “Inhibitory effect (%) S. aureus ATCC 25923” value in [5] (setting [11]) is 0.7±3.4%. In addition, the “Activity against all microbial strains tested” value in series [6] is “inactive”. The “Inhibitory effect (%) C. albicans ATCC 90028” value in series [7] (setting [13]) is -13.9±24.7%. The “Inhibitory effect (%) E. faecalis ATCC 29212” value in series [8] (setting [11]) was 5.7±13.4%.
For the compound `CC1(C)CC[C@]2(C(=O)O)CC[C@]3(C)C(=CC[C@@H]4[C@@]5(C)CC[C@H](O)C(C)(C)[C@@H]5CC[C@]43C)[C@@H]2C1` [OA, oleanolic acid], the “MIC against S. aureus and E. faecalis” value in series [10] was 8 to 64 µg/mL.

One may read the IC50 as the midpoint of a concentration-inhibition curve.
